Converted amounts (≈) assume the structure as drawn. Blank lines part the entries; values can stand above or below the compound they belong to.
What was measured:
[1] = Solubility of compound in pH 7.4 PBS buffer measured after 2 hrs by turbidimetric assay; type: physicochemical
[2] = target: T1, Bifunctional epoxide hydrolase 2 (Homo sapiens) (UniProt P34913); experiment: Inhibition of recombinant human sEH at 100 nM using PHOME as substrate measured after 15 mins by fluorescence assay relative to control
T1 sequence (whole entry): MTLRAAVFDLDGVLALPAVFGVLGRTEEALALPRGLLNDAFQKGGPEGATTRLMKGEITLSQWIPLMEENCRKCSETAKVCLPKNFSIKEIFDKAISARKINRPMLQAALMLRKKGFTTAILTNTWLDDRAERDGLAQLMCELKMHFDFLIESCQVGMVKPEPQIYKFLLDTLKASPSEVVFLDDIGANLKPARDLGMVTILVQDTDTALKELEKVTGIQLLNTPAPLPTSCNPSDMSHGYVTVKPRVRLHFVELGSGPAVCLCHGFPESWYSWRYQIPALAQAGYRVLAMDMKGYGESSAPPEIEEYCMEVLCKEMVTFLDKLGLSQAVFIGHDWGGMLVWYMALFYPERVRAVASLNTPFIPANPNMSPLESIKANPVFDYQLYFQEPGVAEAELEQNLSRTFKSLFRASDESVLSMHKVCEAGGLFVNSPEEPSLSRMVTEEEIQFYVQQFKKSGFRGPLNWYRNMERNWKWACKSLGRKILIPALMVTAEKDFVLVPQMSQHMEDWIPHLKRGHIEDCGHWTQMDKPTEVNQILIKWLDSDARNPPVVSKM

[3] = target: T2, Bifunctional epoxide hydrolase 2 (Homo sapiens, UniProt P34913); experiment: Inhibition of recombinant human sEH using PHOME as substrate measured after 15 mins by fluorescence assay
T2 sequence (P34913 whole entry): T1 sequence (whole entry)

[4] = tested on: HepG2; experiment: Cytotoxicity against human HepG2 cells assessed as reduction in cell viability measured after 48 hrs by MTT assay; type: cell-based; conditions: HepG2, 48 h
[5] = tested on: Mus musculus; experiment: Antiinflammatory activity in BALB/c mouse model of carrageenan-induced paw edema assessed as paw thickness at 100 mg/kg, ip pretreated for 1 hr followed by carrageenan challenge and measured after 1 hr by caliper method (reference value: 3.51 +/- 0.19 millimeter); type: functional; conditions: time 2 hrs
[6] = tested on: Mus musculus; experiment: Antiinflammatory activity in BALB/c mouse model of carrageenan-induced paw edema assessed as paw edema at 100 mg/kg, ip pretreated for 1 hr followed by carrageenan challenge and measured after 1 hr by caliper method relative to control; type: functional; conditions: time 2 hrs
[7] = tested on: Mus musculus; experiment: Antiinflammatory activity in BALB/c mouse model of carrageenan-induced paw edema assessed as paw thickness at 100 mg/kg, ip pretreated for 1 hr followed by carrageenan challenge and measured after 2 hrs by caliper method (reference value: 3.56 +/- 0.29 millimeter); type: functional; conditions: time 3 hrs
[8] = tested on: Mus musculus; experiment: Antiinflammatory activity in BALB/c mouse model of carrageenan-induced paw edema assessed as paw edema at 100 mg/kg, ip pretreated for 1 hr followed by carrageenan challenge and measured after 2 hrs by caliper method relative to control; type: functional; conditions: time 3 hrs
[9] = tested on: Mus musculus; experiment: Antiinflammatory activity in BALB/c mouse model of carrageenan-induced paw edema assessed as paw thickness at 100 mg/kg, ip pretreated for 1 hr followed by carrageenan challenge and measured after 3 hrs by caliper method (reference value: 3.61 +/- 0.36 millimeter); type: functional; conditions: time 4 hrs
[10] = tested on: Mus musculus; experiment: Antiinflammatory activity in BALB/c mouse model of carrageenan-induced paw edema assessed as paw edema at 100 mg/kg, ip pretreated for 1 hr followed by carrageenan challenge and measured after 3 hrs by caliper method relative to control; type: functional; conditions: time 4 hrs
[11] = tested on: Mus musculus; experiment: Antiinflammatory activity in BALB/c mouse model of carrageenan-induced paw edema assessed as paw thickness at 100 mg/kg, ip pretreated for 1 hr followed by carrageenan challenge and measured after 4 hrs by caliper method (reference value: 3.60 +/- 0.12 millimeter); type: functional; conditions: time 5 hrs
[12] = tested on: Mus musculus; experiment: Antiinflammatory activity in BALB/c mouse model of carrageenan-induced paw edema assessed as paw edema at 100 mg/kg, ip pretreated for 1 hr followed by carrageenan challenge and measured after 4 hrs by caliper method relative to control; type: functional; conditions: time 5 hrs
[13] = in vitro; conditions: Sprague-Dawley, rat, liver microsomes
Description: Half life in Sprague-Dawley rat liver microsomes at 10 uM measured up to 60 mins in presence of NADPH regenerating system by HPLC analysis

[14] = in vitro; conditions: Sprague-Dawley, rat, liver microsomes; remark: listed apart in the source
[15] = in vitro; conditions: Sprague-Dawley, rat, liver microsomes; remark: listed apart in the source
[16] = in vitro; conditions: Sprague-Dawley, rat, liver microsomes; remark: listed apart in the source
Description: Stability in Sprague-Dawley rat liver microsomes assessed as parent compound remaining at 10 uM measured after 60 mins in presence of NADPH regenerating system by HPLC analysis

[17] = in vitro; conditions: Sprague-Dawley, rat, liver microsomes; remark: listed apart in the source
Description: Stability in Sprague-Dawley rat liver microsomes assessed as parent compound remaining at 10 uM measured after 60 mins in absence of NADPH regenerating system by HPLC analysis

[18] = target: T1, Bifunctional epoxide hydrolase 2 (Homo sapiens); experiment: Potency index, ratio of t-AUCB IC50 to test compound IC50 for recombinant human sEH
[19] = target: T2, Bifunctional epoxide hydrolase 2; experiment: Mixed-type inhibition of recombinant human sEH using PHOME as substrate measured after 15 mins by fluorescence based Lineweaver-burk plot analysis
[20] = target: T1, Bifunctional epoxide hydrolase 2 (Homo sapiens); experiment: Mixed-type inhibition of recombinant human sEH assessed as inhibitor dissociation constant using PHOME as substrate measured after 15 mins by fluorescence based Lineweaver-burk plot analysis

SMILES: Nc1nc2ccc(N(CCN3CCOCC3)C(=O)Nc3ccc(Cl)cc3)cc2s1
solubility kinetic at 2 h [1]: 39 µg/mL (≈ 90.3 µM)
inhibition [2]: 89.1%
IC50 [3]: 2.8 nM
IC50 [4]: > 25000 nM
Activity [5]: 3.11 mm
Activity [6]: 20.99%
Activity [7]: 3.06 mm
Activity [8]: 19.06%
Activity [9]: 3.13 mm
Activity [10]: 21.64%
Activity [11]: 3.17 mm
Activity [12]: 23.39%
half-life at 1 h, 10 µM [13]: 34.7 min
microsomal CLint at 1 h, 10 µM [14]: 40 µL/min/mg
microsomal CLint at 1 h, 10 µM [15]: 71.9 µL/min/mg
remaining at 1 h, 10 µM [16]: 30.1%
remaining at 1 h, 10 µM [17]: 99.5%

SMILES: Nc1nc2ccc(N(CCN3CCOCC3)C(=O)Nc3ccc(F)c(Br)c3)cc2s1
solubility kinetic at 2 h [1]: 68 µg/mL (≈ 138 µM)
inhibition [2]: 90.5%
IC50 [4]: > 25000 nM
Activity [5]: 3.15 mm
Activity [6]: 30.86%
Activity [7]: 3.16 mm
Activity [8]: 31.49%
Activity [9]: 3.06 mm
Activity [10]: 27.39%
Activity [11]: 3.06 mm
Activity [12]: 27.12%
half-life at 1 h, 10 µM [13]: 44.7 min
microsomal CLint at 1 h, 10 µM [14]: 31 µL/min/mg
microsomal CLint at 1 h, 10 µM [15]: 55.8 µL/min/mg
remaining at 1 h, 10 µM [16]: 36.2%
remaining at 1 h, 10 µM [17]: 85%

solubility kinetic at 2 h [1]: 30 µg/mL (≈ 51.2 µM)
inhibition [2]: 90.2%
IC50 [3]: 0.1 nM
Ratio IC50 [18]: 67
SMILES: O=C(Nc1ccc(Cl)cc1)Nc1nc2ccc(N(CCN3CCOCC3)C(=O)Nc3ccc(Cl)cc3)cc2s1

SMILES: O=C(Cc1ccccc1)Nc1nc2ccc(N(CCN3CCOCC3)C(=O)Nc3ccc(Cl)cc3)cc2s1
solubility kinetic at 2 h [1]: 61 µg/mL (≈ 111 µM)
inhibition [2]: 84.7%
IC50 [3]: 0.082 nM
Ki [19]: 4.77 nM
Kdiss [20]: 23.1 nM
IC50 [4]: > 25000 nM
Activity [5]: 3.33 mm
Activity [6]: 21.56%
Activity [7]: 3.22 mm
Activity [8]: 17.58%
Activity [9]: 3.19 mm
Activity [10]: 16.48%
Activity [11]: 3.3 mm
Activity [12]: 20.32%
half-life at 1 h, 10 µM [13]: 1.7 min
microsomal CLint at 1 h, 10 µM [14]: 820 µL/min/mg
microsomal CLint at 1 h, 10 µM [15]: 1480 µL/min/mg
remaining at 1 h, 10 µM [16]: 0%
remaining at 1 h, 10 µM [17]: 116%

— ChEMBL document CHEMBL4706628, “Ligand-based optimization to identify novel 2-aminobenzo[d]thiazole derivatives as potent sEH inhibitors with anti-inflammatory effects” (Eur J Med Chem, 2021)
